Measurements from patent US5530126A, “Process for the preparation of substituted 6-(pyrazol-3yl)-1,4-benzoxazin-3-ones” (Monsanto Company, priority 1994, dated 1996).

Columns and labels:
Assay type in all cases: in vivo
[1] = test system: Yellow nutsedge; test: Pre-emergence herbicide test; conditions: Cyperus, read-out: % plant inhibition (Yens); for inhibition at 11210 g/ha: 11.21 kg/ha
Procedure: (§1) The tests for pre-emergence herbicide activity are conducted as follows:
(§2) Topsoil is placed in an aluminum pan and compacted to a depth of 0.95 to 1.27 cm from the top of the pan. On the top of the soil is placed a predetermined number of seeds of each of several monocotyledonous and dicotyledonous annual plant species and/or vegetative propagules of various perennial plant species. A known amount of the active ingredient dissolved or suspended in an organic solvent, e.g., acetone, or water as carrier is then applied directly to the seed bed, which is then covered with a layer of untreated topsoil to level fill the pan. After treatment, the pans are moved to a greenhouse bench where they are watered from below as needed to give adequate moisture for germination and growth.
(§3) Approximately 10-14 days (usually 11 days) after seeding and treating, the pans are observed and the results (% inhibition) are recorded.
(§4) Tables 7 and 7A below summarize the results of the pre-emergence herbicidal activity tests of compounds of this invention in weeds. The herbicidal rating shown in these tables is the percent inhibition of each plant species. The plant species usually regarded as weeds which are utilized in one set of tests, the data for which are shown in the tables, are identified by letter headings above the columns in accordance with the following legend: […]

[2] = test system: Wild buckwheat; test: Pre-emergence herbicide test; conditions: Fallopia convolvulus, read-out: % plant inhibition (Wibw); for inhibition at 11210 g/ha: 11.21 kg/ha
Procedure: as §1, §2, §3, §4

[3] = test system: Barnyardgrass; test: Pre-emergence herbicide test; conditions: Echinochloa crus-galli, read-out: % plant inhibition (Bygr); for inhibition at 11210 g/ha: 11.21 kg/ha
Procedure: as §1, §2, §3, §4

[4] = test system: Cocklebur; test: Pre-emergence herbicide test; conditions: Xanthium strumarium, read-out: % plant inhibition (Cobu); for inhibition at 11210 g/ha: 11.21 kg/ha
Procedure: as §1, §2, §3, §4

[5] = test system: Morningglory; test: Pre-emergence herbicide test; conditions: Ipomoea, read-out: % plant inhibition (Mogl); for inhibition at 11210 g/ha: 11.21 kg/ha
Procedure: as §1, §2, §3, §4

[6] = test system: Annual bluegrass; test: Pre-emergence herbicide test; conditions: read-out: % plant inhibition (Anbg); for inhibition at 11210 g/ha: 11.21 kg/ha
Procedure: as §1, §2, §3, §4

[7] = test system: Seedling johnsongrass; test: Pre-emergence herbicide test; conditions: Sorghum halepense, read-out: % plant inhibition (Sejg); for inhibition at 11210 g/ha: 11.21 kg/ha
Procedure: as §1, §2, §3, §4

[8] = test system: Velvetleaf; test: Pre-emergence herbicide test; conditions: Abutilon theophrasti, read-out: % plant inhibition (Vele); for inhibition at 11210 g/ha: 11.21 kg/ha
Procedure: as §1, §2, §3, §4

[9] = test system: Downy Brome; test: Pre-emergence herbicide test; conditions: Bromus tectorum, read-out: % plant inhibition (Dobr); for inhibition at 11210 g/ha: 11.21 kg/ha
Procedure: as §1, §2, §3, §4

[10] = test system: Indian Mustard; test: Pre-emergence herbicide test; conditions: Brassica juncea, read-out: % plant inhibition (Inmu); for inhibition at 11210 g/ha: 11.21 kg/ha
Procedure: as §1, §2, §3, §4

[11] = test system: Yellow nutsedge; test: Post-emergence herbicide test; conditions: Cyperus, read-out: % plant inhibition (Yens); for inhibition at 11210 g/ha: 11.21 kg/ha
From the text: (§5) Topsoil is placed in aluminum pans having holes in the bottom and compacted to a depth of 0.95 to 1.27 cm from the top of the pan. A predetermined number of seeds of each of several dicotyledonous and monocotyledonous annual plant species and/or vegetative propagules for the perennial plant species are placed on the soil and pressed into the soil surface. The seeds and/or vegetative propagules are covered with soil and leveled. The pans are then placed on a bench in the greenhouse and watered from below as needed. After the plants reach the desired age (two to three weeks), each pan, is removed individually to a spraying chamber and sprayed by means of an atomizer, operating at a spray pressure of 170.3 kPa (10 psig) at the application rates noted. In the spray solution is an amount of an emulsifying agent mixture to give a spray solution or suspension which contains about 0.4% by volume of the emulsifier. The spray solution or suspension contains a sufficient amount of the candidate chemical in order to give application rates of the active ingredient corresponding to those shown in Tables 8 and 8A, while applying a total amount of solution or suspension equivalent to 1870 L/Ha (200 gallons/acre). The pans were returned to the greenhouse and watered as before and the injury to the plants as compared to the control is observed at approximately 10-14 days (usually 11 days) and in some instances observed again at 24-28 days (usually 25 days) after spraying. The post-emergent herbicidal activity shown in these tables is the percent inhibition of each plant species.

[12] = test system: Wild buckwheat; test: Post-emergence herbicide test; conditions: Fallopia convolvulus, read-out: % plant inhibition (Wibw); for inhibition at 11210 g/ha: 11.21 kg/ha
From the text: as §5

[13] = test system: Barnyardgrass; test: Post-emergence herbicide test; conditions: Echinochloa crus-galli, read-out: % plant inhibition (Bygr); for inhibition at 11210 g/ha: 11.21 kg/ha
From the text: as §5

[14] = test system: Cocklebur; test: Post-emergence herbicide test; conditions: Xanthium strumarium, read-out: % plant inhibition (Cobu); for inhibition at 11210 g/ha: 11.21 kg/ha
From the text: as §5

[15] = test system: Morningglory; test: Post-emergence herbicide test; conditions: Ipomoea, read-out: % plant inhibition (Mogl); for inhibition at 11210 g/ha: 11.21 kg/ha
From the text: as §5

[16] = test system: Annual bluegrass; test: Post-emergence herbicide test; conditions: read-out: % plant inhibition (Anbg); for inhibition at 11210 g/ha: 11.21 kg/ha
From the text: as §5

[17] = test system: Seedling johnsongrass; test: Post-emergence herbicide test; conditions: Sorghum halepense, read-out: % plant inhibition (Sejg); for inhibition at 11210 g/ha: 11.21 kg/ha
From the text: as §5

[18] = test system: Velvetleaf; test: Post-emergence herbicide test; conditions: Abutilon theophrasti, read-out: % plant inhibition (Vele); for inhibition at 11210 g/ha: 11.21 kg/ha
From the text: as §5

[19] = test system: Downy Brome; test: Post-emergence herbicide test; conditions: Bromus tectorum, read-out: % plant inhibition (Dobr); for inhibition at 11210 g/ha: 11.21 kg/ha
From the text: as §5

[20] = test system: Indian Mustard; test: Post-emergence herbicide test; conditions: Brassica juncea, read-out: % plant inhibition (Inmu); for inhibition at 11210 g/ha: 11.21 kg/ha
From the text: as §5

SMILES	inhibition at 11210 g/ha [1]	inhibition at 11210 g/ha [2]	inhibition at 11210 g/ha [3]	inhibition at 11210 g/ha [4]	inhibition at 11210 g/ha [5]	inhibition at 11210 g/ha [6]	inhibition at 11210 g/ha [7]	inhibition at 11210 g/ha [8]	inhibition at 11210 g/ha [9]	inhibition at 11210 g/ha [10]	inhibition at 11210 g/ha [11]	inhibition at 11210 g/ha [12]	inhibition at 11210 g/ha [13]	inhibition at 11210 g/ha [14]	inhibition at 11210 g/ha [15]	inhibition at 11210 g/ha [16]	inhibition at 11210 g/ha [17]	inhibition at 11210 g/ha [18]	inhibition at 11210 g/ha [19]	inhibition at 11210 g/ha [20]	also measured
CCOC(=O)c1cc(-c2nn(C)c(C(F)(F)F)c2Cl)c(F)cc1Cl [Compound 148, 2-Chloro-5-(4-chloro-1-methyl-5-(trifluoromethyl)-1H-pyrazol-3-yl)-4-fluorobenzoic acid, ethyl ester]																					inhibition at 1120 g/ha ([1]; 1.12 kg/ha): 0%; inhibition at 1120 g/ha ([2]; 1.12 kg/ha): 100%; inhibition at 1120 g/ha ([3]; 1.12 kg/ha): 90%; inhibition at 1120 g/ha ([4]; 1.12 kg/ha): 90%; inhibition at 1120 g/ha ([5]; 1.12 kg/ha): 100%; inhibition at 1120 g/ha ([6]; 1.12 kg/ha): 70%; inhibition at 1120 g/ha ([7]; 1.12 kg/ha): 50%; inhibition at 1120 g/ha ([8]; 1.12 kg/ha): 100%; inhibition at 1120 g/ha ([9]; 1.12 kg/ha): 80%; inhibition at 1120 g/ha ([10]; 1.12 kg/ha): 100%; inhibition at 1120 g/ha ([11]; 1.12 kg/ha): 20%; inhibition at 1120 g/ha ([12]; 1.12 kg/ha): 100%; inhibition at 1120 g/ha ([13]; 1.12 kg/ha): 100%; inhibition at 1120 g/ha ([14]; 1.12 kg/ha): 100%; inhibition at 1120 g/ha ([15]; 1.12 kg/ha): 100%; inhibition at 1120 g/ha ([16]; 1.12 kg/ha): 100%; inhibition at 1120 g/ha ([17]; 1.12 kg/ha): 100%; inhibition at 1120 g/ha ([18]; 1.12 kg/ha): 100%; inhibition at 1120 g/ha ([19]; 1.12 kg/ha): 100%; inhibition at 1120 g/ha ([20]; 1.12 kg/ha): 100%
CNC(=O)Cc1cc(-c2nn(C)c(C(F)(F)F)c2Cl)c(F)cc1Cl [Compound 114]	90%	100%	100%	70%	100%	100%	90%	100%	60%	100%	10%	60%	0%	20%	50%	10%	0%	50%	0%	10%	
Cn1nc(-c2cc(N3CCOCC3)c(Cl)cc2F)c(Cl)c1C(F)(F)F [Compound 99]	30%	100%	90%	80%	90%	80%	90%	100%	100%	100%	10%	100%	100%	90%	100%	100%	100%	100%	90%	100%	
Cn1nc(-c2cc(C(Br)Br)c(Cl)cc2F)c(Cl)c1C(F)(F)F [Compound 132, 4-chloro-3-[4-chloro-5-(dibromomethyl)-2-fluorophenyl]-1-methyl-5-(trifluoromethyl)-1H-pyrazole]	30%	100%	90%	70%	100%	60%	70%	100%	80%	90%	30%	100%	100%	100%	100%	60%	100%	100%	80%	100%	
